In ChEMBL document CHEMBL5576143, “Discovery of CW-3308 as a Potent, Selective, and Orally Efficacious PROTAC Degrader of BRD9” (J Med Chem, 2024):

How the values were obtained:
[1] = Metabolic stability in dog liver microsome assessed as half-life at 1 uM preincubated for 5 mins followed by NADPH addition and measured upto 60 mins by LC-MS/MS analysis; type: ADME, Canis lupus familiaris; details: liver microsomes, time < 65 min
[2] = Metabolic stability in monkey liver microsome assessed as half-life at 1 uM preincubated for 5 mins followed by NADPH addition and measured upto 60 mins by LC-MS/MS analysis; type: ADME, Macaca mulatta; details: rhesus monkey, liver microsomes, time < 65 min
[3] = Volume of distribution at steady state in rat at 3 mg/kg, po or 1 mg/kg, iv; type: ADME, organism-based; details: in vivo
[4] = Oral bioavailability in rat at 3 mg/kg; type: ADME, organism-based; details: in vivo
[5] = in vitro; details: human, liver microsomes
[6] = in vitro; details: rat, liver microsomes
[7] = in vitro; details: mouse, liver microsomes
[8] = Half-life in rat at 3 mg/kg, po or 1 mg/kg, iv; type: ADME, organism-based; details: in vivo
[9] = Cmax in rat at 3 mg/kg, po or 1 mg/kg, iv; type: ADME, organism-based; details: in vivo
[10] = AUC in rat at 3 mg/kg, po or 1 mg/kg, iv; type: ADME, organism-based; details: in vivo
[11] = in vitro; details: human, Caco-2
[12] = in vitro; details: human, Caco-2; remark: listed apart in the source

## CN1Cc2cc3c(cc2C1)C(=O)N(C1CCC(=O)NC1=O)C3=O (centres undefined)
[1]
  half-life at 1 µM: > 1 h
[2]
  half-life at 1 µM: 0.9 h
[3]
  Vdss: 5 L/kg
[4]
  bioavailability: 70%
[5]
  half-life at 1 h, 1 µM: > 1 h
[6]
  half-life at 1 h, 1 µM: > 1 h
[7]
  half-life at 1 h, 1 µM: > 1 h

## CN1Cc2cc3c(cc2C1)C(=O)N(C1CCC(=O)NC1=O)C3 (centres undefined)
[1]
  half-life at 1 µM: > 1 h
[2]
  half-life at 1 µM: > 1 h
[3]
  Vdss: 2.9 L/kg
[8]
  half-life: 2.2 h
[9]
  Cmax: 276 ng/mL
[10]
  AUC: 1500 ng·h/mL
[4]
  bioavailability: 60%
[11]
  Papp A→B at 2 h, 10 µM: 2.55 ×10⁻⁶ cm/s
[12]
  Papp B→A at 2 h, 10 µM: 6.8 ×10⁻⁶ cm/s
[5]
  half-life at 1 h, 1 µM: > 1 h
[6]
  half-life at 1 h, 1 µM: > 1 h
[7]
  half-life at 1 h, 1 µM: > 1 h
